In PMC9750872, “Ras-mutant cancers are sensitive to small molecule inhibition of V-type ATPases in mice” (Nature biotechnology, 2022):
“Also recorded” adds a separate entry of the source.

Columns and labels:
[1] = target: human ether-à-go-go-related gene (hERG) (Homo sapiens, UniProt Q12809); assay: hERG fluorescence polarization assay; settings: at 30 μM
human primary cells = assay: BioMAP Safety and Toxicology screening profile; format: cell-based
Protocol: The BioMAP Toxicity Screening Profile was performed as described previously.

hERG [2] = target: T1, hERG (Homo sapiens, UniProt Q12809); assay: in vitro
T1 sequence (Q12809 whole entry): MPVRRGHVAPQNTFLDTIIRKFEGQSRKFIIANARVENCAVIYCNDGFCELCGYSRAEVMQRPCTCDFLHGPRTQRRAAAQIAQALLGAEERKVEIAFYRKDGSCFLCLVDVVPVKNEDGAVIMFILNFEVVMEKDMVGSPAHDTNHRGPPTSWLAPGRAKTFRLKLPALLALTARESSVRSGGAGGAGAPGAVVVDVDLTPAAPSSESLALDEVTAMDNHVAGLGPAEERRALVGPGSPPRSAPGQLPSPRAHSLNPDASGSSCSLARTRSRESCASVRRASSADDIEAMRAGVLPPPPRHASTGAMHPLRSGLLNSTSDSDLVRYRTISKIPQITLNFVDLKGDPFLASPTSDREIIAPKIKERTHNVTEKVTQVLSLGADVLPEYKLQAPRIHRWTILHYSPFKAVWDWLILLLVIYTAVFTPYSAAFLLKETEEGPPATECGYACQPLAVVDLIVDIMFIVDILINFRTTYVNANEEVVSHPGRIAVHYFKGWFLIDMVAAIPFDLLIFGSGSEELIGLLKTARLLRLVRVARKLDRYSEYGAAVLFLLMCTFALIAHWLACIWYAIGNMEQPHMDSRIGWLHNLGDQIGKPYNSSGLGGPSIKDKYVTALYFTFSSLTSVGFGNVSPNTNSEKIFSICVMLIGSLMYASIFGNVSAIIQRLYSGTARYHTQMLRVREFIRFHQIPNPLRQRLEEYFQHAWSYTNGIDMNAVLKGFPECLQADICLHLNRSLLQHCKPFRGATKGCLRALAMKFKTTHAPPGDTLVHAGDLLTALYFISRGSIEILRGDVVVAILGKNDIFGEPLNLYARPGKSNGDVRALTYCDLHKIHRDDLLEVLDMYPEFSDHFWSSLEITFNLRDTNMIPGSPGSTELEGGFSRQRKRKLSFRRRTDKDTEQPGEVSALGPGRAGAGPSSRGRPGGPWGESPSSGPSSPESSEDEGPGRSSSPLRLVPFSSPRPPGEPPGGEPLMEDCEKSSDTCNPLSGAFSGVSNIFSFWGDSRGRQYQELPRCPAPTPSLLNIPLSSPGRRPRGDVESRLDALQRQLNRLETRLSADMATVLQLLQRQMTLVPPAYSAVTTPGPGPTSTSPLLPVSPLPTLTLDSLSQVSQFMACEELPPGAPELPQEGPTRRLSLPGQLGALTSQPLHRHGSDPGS

[3] = target: T2, mammalian V-ATPase purified from pig kidneys (Sus scrofa, UniProt Q9TVC1); assay: Biochemical V-ATPase (ATP hydrolysis) assay; settings: concentrations as low as 1 μM
T2 construct: the entire V-ATPase complex (800 kDa) was purified as described previously from porcine kidneys; from tissue; host or cells: porcine kidney
T2 sequence (Q9TVC1 whole entry): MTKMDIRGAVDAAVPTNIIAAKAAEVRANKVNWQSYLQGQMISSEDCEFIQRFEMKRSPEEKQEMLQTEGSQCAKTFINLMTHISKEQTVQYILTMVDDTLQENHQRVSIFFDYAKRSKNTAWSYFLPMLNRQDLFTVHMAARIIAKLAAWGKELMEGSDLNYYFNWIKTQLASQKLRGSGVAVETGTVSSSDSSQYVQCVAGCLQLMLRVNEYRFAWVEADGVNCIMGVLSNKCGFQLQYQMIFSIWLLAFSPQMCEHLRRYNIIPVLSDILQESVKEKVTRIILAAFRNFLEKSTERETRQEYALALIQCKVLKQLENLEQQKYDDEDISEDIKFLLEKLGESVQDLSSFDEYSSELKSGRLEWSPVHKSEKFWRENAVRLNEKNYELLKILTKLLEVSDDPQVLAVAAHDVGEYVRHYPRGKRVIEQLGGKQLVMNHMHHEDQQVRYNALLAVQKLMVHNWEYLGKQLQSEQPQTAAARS
T2 sequence (Q29048 whole entry partner): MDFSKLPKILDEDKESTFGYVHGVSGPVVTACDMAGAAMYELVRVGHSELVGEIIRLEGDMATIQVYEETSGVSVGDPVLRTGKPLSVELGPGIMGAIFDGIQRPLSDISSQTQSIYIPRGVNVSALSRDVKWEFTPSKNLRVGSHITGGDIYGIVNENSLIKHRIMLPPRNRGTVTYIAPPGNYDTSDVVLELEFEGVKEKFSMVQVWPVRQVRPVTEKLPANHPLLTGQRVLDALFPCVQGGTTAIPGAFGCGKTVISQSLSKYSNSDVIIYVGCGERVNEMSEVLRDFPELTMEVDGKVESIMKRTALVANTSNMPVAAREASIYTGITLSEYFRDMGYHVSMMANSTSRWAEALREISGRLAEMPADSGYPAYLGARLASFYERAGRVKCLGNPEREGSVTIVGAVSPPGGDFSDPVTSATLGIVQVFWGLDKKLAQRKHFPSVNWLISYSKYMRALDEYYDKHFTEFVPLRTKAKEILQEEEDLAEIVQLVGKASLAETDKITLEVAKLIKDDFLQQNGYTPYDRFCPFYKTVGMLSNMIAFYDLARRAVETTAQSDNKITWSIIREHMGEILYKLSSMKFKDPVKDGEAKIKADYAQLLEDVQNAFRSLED
Protocol: V-ATPase was purified as described previously from yeast[82] using the detergent dodecylmaltoside and porcine kidney[83] using the detergent glycol-diosgenin. ATPase assays with purified V-ATPase were performed as described previously. 249C (mammalian: 0.1, 1, 10, 100 μM and yeast: 5, 10 and 100 μM) or BafA1 (1 μM) were added to the reaction and compared with a negative control to which only DMSO was added. Enzyme-coupled ATPase biochemical activity assays were performed in a 96-well plate as described previously.

Yeast V-ATPase = target: T3, Yeast V-ATPase (Saccharomyces cerevisiae, UniProt P25515+P41807); assay: Biochemical V-ATPase (ATP hydrolysis) assay
T3 construct: V-ATPase was purified as described previously from yeast[82] using the detergent dodecylmaltoside; endogenous in cells; host or cells: yeast
T3 sequence (P25515 whole entry): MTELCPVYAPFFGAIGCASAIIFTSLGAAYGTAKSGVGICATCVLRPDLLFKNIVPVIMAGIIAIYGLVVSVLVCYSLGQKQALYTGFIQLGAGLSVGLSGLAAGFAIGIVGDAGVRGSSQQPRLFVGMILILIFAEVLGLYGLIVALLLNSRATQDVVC
T3 sequence (P41807 2-478): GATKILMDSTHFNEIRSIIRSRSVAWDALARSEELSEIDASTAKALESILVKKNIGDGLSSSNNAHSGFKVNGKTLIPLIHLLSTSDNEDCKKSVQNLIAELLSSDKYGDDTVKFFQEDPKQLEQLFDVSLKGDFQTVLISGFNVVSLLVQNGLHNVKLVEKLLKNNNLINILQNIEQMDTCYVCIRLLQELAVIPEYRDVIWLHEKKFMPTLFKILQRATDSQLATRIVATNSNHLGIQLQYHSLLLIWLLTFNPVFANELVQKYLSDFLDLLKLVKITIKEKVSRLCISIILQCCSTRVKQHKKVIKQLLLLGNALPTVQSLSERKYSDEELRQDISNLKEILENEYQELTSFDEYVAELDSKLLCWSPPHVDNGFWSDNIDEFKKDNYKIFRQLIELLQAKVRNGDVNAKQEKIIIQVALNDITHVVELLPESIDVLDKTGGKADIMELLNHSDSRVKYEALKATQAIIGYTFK
Protocol: V-ATPase was purified as described previously from yeast[82] using the detergent dodecylmaltoside and porcine kidney[83] using the detergent glycol-diosgenin. ATPase assays with purified V-ATPase were performed as described previously. 249C (mammalian: 0.1, 1, 10, 100 μM and yeast: 5, 10 and 100 μM) or BafA1 (1 μM) were added to the reaction and compared with a negative control to which only DMSO was added. Enzyme-coupled ATPase biochemical activity assays were performed in a 96-well plate as described previously. […]
appears to cause accumulation of high molecular weight entities. Representative of 3 independent experiments. […]
observed. Data shown are mean ± SD ( n = 3) Two-tailed student’s t-test (C) ATP-dependent fluorescence quenching in yeast (me an ± SD; n = 3 ) Two-t ailed student’s t-test (D) SDS PAGE over th e cou rse of recombinant human ATP6V1H protein purification. 1. Mark ers; 2. Total l ysate (GST-fusion […]); 3. Soluble lysate; 4.
GSTrap flow-through; 5. GSTrap elute; 6. Post thrombin cleavage (target 54 kDa, GST 25 kDa); 7. Subtractive GSTrap flow -through; 8. Markers; 9. Final sample, 1 µg protein load. Repres entative of 2 independent ex periments. (E) Structure of biotin- 249C. […]
interfere with V-ATPas e binding. ( F) Experimental schematic of Bio-la yer inferometr y (B L I) .
(1 picture or pasted object on this page, not shown here)

[4] = test system: V-ATPase-dependent proton transport in HEK293T cells; assay: Proton pumping assay, FITC-Dextran-loaded lysosomes; format: cell-based, human; settings: 1 h treatment, listed as BafA1
From the text: Figure 4. […] (A) Model of the reversible assembly of V-ATPase. Cytosolic V1 subunits are depicted in blue and membrane Vo subunits in purple. Upon V-ATPase assembly, ATP is hydrolyzed to ADP accompanied by proton (H^+) pumping and luminal acidification (decrease in pH) (Created with BioRender). […] The amount of subunit B2 present in the membrane fraction indicates the amount of assembled V-ATPase. A representative Western blot is presented. […] Cells were mechanically lysed, and a fraction containing FITC-Dextran-loaded lysosomes was isolated by sedimentation centrifugation. Fluorescence was measured over time to assess pH-dependent quenching following addition of 1 mM magnesium-ATP (predetermined). […] Representative of 5 individual experiments with n = 3 for each is presented (mean ± SD) (D) Mammalian V-ATPase activity measured in the absence and presence of 1 μM 249C and 1 μM BafA1. Data shown are mean ± SD; n = 3. […]
4 × 10^6 HEK 293T cells were plated in 10-cm plates. […] Sample fluorescence was excited at 490 nm, and emission fluorescence at 520 nm was measured continuously in BioTek plate reader (Synergy) using Gen5 software (version 3.05). After initial fluorescence stabilization, 1 mM ATP and 2 mM MgCl2 were added to initiate ATPase activity and proton pumping into the lysosomes, which causes quenching of FITC in the lysosomal lumen. […]

hERG [5] = target: T1, hERG; assay: hERG fluorescence polarization assay; settings: human

Sequence of human ether-à-go-go-related gene (hERG) (Q12809 whole entry): as the sequence (Q12809 whole entry) above

SMILES: CN(CCCCCCNc1ccnc2cc(Cl)ccc12)CCCCCCNc1ccnc2cc(Cl)ccc12 [DC661]
- Percent inhibition of hERG [1]: 100%

SMILES: CCN(CCO)CCCC(C)Nc1ccnc2cc(Cl)ccc12 (stereo not shown) [HCQ, hydroxychloroquine]
- BioMAP Screening Profile 3C:SRB (human primary cells; human, 1000 nM): 0
- BioMAP Screening Profile 4H:SRB (human primary cells; human, 1000 nM): 0
- BioMAP Screening Profile BE3C:SRB (human primary cells; human, 1000 nM): 0
- BioMAP Screening Profile BF4T:SRB (human primary cells; human, 1000 nM): 0
- BioMAP Screening Profile BT:PBMC Cytotoxicity (human primary cells; human, 1000 nM): 0
- BioMAP Screening Profile CASM3C:SRB (human primary cells; human, 1000 nM): 0
- BioMAP Screening Profile Cytotoxicity (human primary cells; human, 1000 nM): 0
- BioMAP Screening Profile HDF3CGF:SRB (human primary cells; human, 1000 nM): 0
- BioMAP Screening Profile KF3CT:SRB (human primary cells; human, 1000 nM): 0
- BioMAP Screening Profile LPS:SRB (human primary cells; human, 1000 nM): 0
- BioMAP Screening Profile MyoF:SRB (human primary cells; human, 1000 nM): 0
- BioMAP Screening Profile SAg:PBMC Cytotoxicity (human primary cells; human, 1000 nM): 0
- BioMAP Screening Profile SAg:SRB (human primary cells; human, 1000 nM): 0
- BioMAP Screening Profile lMphg:SRB (human primary cells; human, 1000 nM): 0
- BioMAP Screening Profile lMphg:SRB-Mphg (human primary cells; human, 1000 nM): 0
- inhibition at 30 µM (hERG [2]): ~60%

SMILES: CO/C1=C\C(C)=C\[C@@H](C)[C@@H](O)[C@@H](C)C/C(C)=C/C=C/[C@H](OC)[C@@H]([C@@H](C)[C@@H](O)[C@H](C)[C@@]2(O)C[C@@H](O)[C@H](C)[C@@H](C(C)C)O2)OC1=O [Bafilomycin A1, reference compound]
- ATP hydrolysis of intact mammalian V-ATPase [3]: blocked ATP hydrolysis
- Yeast V-ATPase activity (Yeast V-ATPase): modest inhibition
- V-ATPase-dependent proton transport (ATP-dependent fluorescence quenching) [4]: inhibited V-ATPase-dependent proton transport; also recorded: ATP-dependent fluorescence quenching was not observed
- toxicity categories / adverse events in BioMAP safety profiling (human primary cells; over 100 biomarker readouts): 2
- inhibition at 30 µM (hERG [5]): 35%
